Assay results published in patent publication US20080248094A1 (NATIONAL RESEARCH COUNCIL OF CANADA, priority 2001, published 2008).
Where “and” joins values, the source holds several entries; their conditions need not be identical. Equal values may be shown once.

Legend:
OVA = tested on: OVA; design: species or system C57BL/6 mice; conditions: mouse, in vivo
[1] = tested on: bone marrow dendritic cells; assay type: cell-based, C57BL/6 mice
[2] = tested on: IL-12 secretion from dendritic cells; assay type: cell-based, C57BL/6 mice

Substance | anti OVA antibody titres (OVA) | MTT (Absorbance) [1] | IL-12 [2]
OVA, no adjuvant: 15 μg ovalbumin (OVA) with no adjuvant | <42 |  | 
lipopolysaccharide [LPS] |  | 0.564 Absorbance and 0.562 Absorbance | 187.9 ng/mL and 182.7 ng/mL
